#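 Values below derive from 48-hour exposures of cells grown in 96-well plates, with endpoints linearly interpolated between the two concentrations bracketing the appropriate inhibition level. GI50: concentration for 50% inhibition of growth. Definition used: TGI = concentration required for complete inhibition of growth.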
# Tests used:
# Experiment in all cases: growth of human tumour cells (NCI), 48 h
# HCC-2998 colon = system: HCC-2998 colon
# HL-60(TB) leukemia = system: HL-60(TB) leukemia
# HT29 colon = system: HT29 colon
# K-562 leukemia = system: K-562 leukemia
# NCI/ADR-RES ovarian = system: NCI/ADR-RES ovarian
# RPMI-8226 leukemia = system: RPMI-8226 leukemia
# SF-539 CNS = system: SF-539 CNS
# SNB-75 CNS = system: SNB-75 CNS
# TK-10 renal = system: TK-10 renal
# UACC-62 melanoma = system: UACC-62 melanoma
Compound,TGI (HCC-2998 colon),TGI (HL-60(TB) leukemia),TGI (HT29 colon),TGI (K-562 leukemia),TGI (NCI/ADR-RES ovarian),TGI (RPMI-8226 leukemia),TGI (SF-539 CNS),TGI (SNB-75 CNS),TGI (TK-10 renal),TGI (UACC-62 melanoma),GI50 (HCC-2998 colon),GI50 (HL-60(TB) leukemia),GI50 (HT29 colon),GI50 (K-562 leukemia),GI50 (NCI/ADR-RES ovarian),GI50 (RPMI-8226 leukemia),GI50 (SF-539 CNS),GI50 (SNB-75 CNS),GI50 (TK-10 renal),GI50 (UACC-62 melanoma)
O=C(c1cc2ccccc2cc1O)N1CCCCC1,49.8 µM,46.9 µM,> 100 µM,48.6 µM,94.3 µM,56.3 µM,> 100 µM,> 100 µM,> 100 µM,> 100 µM,,,,,,,,,,
O=C(CCCN1CCC2(CC1)CC(=O)N(N1CCOCC1)C2=O)c1ccccc1,> 100 µM,> 100 µM,> 100 µM,> 100 µM,> 100 µM,> 100 µM,> 100 µM,> 100 µM,> 100 µM,> 100 µM,,,,,,,,,,
COc1ccc2cc3c4cc5c(cc4cc[n+]3cc2c1OC)OCO5,> 55.5 µM,> 65.5 µM,> 100 µM,> 100 µM,> 100 µM,35.1 µM,> 58.5 µM,67 µM,83.2 µM,27.9 µM,,,,,,,,,,
Oc1ccccc1/C=N/c1nc2cc3sc(/N=C/c4ccccc4O)nc3cc2s1,> 100 µM,> 73.3 µM,> 100 µM,> 100 µM,> 100 µM,> 100 µM,> 100 µM,> 100 µM,> 100 µM,> 100 µM,,,,,,,,,,
C(=N\NC1=NCCCN1)/c1ccc2ccccc2c1,10.5 µM,21 µM,23 µM,12.6 µM,76.1 µM,28.3 µM,31.1 µM,18.4 µM,36.8 µM,30 µM,,,,,,,,,,
COc1cc2c(cc1-c1c(C)noc1C)cc(C)c(=O)n2Cc1ccccn1,17.3 µM,3.77 µM,> 100 µM,> 100 µM,> 100 µM,3.86 µM,13.2 µM,0.456 µM,18.3 µM,15 µM,1.79 µM,0.301 µM,0.469 µM,0.963 µM,1.34 µM,0.307 µM,0.983 µM,0.0306 µM,0.34 µM,0.407 µM
COc1ccc(C(OCC2OC(n3cc(C)c(=O)[nH]c3=O)CC2n2cc(Cn3cc(F)c(=O)[nH]c3=O)nn2)(c2ccccc2)c2ccccc2)cc1 (stereo not given),15.1 µM,5.83 µM,> 100 µM,,> 100 µM,8.93 µM,23.9 µM,42.5 µM,33.9 µM,29.2 µM,,,,,,,,,,
C1=CC2=CC=CC3c4nc5ccc6ccccc6c5nc4C(=C1)C23 (stereo not given),> 100 µM,> 100 µM,> 100 µM,> 100 µM,> 100 µM,> 100 µM,> 100 µM,> 100 µM,> 100 µM,> 100 µM,,,,,,,,,,
CS(=O)(=O)OCCn1c(=O)n(CCOS(C)(=O)=O)c(=O)n(CCOS(C)(=O)=O)c1=O,> 100 µM,> 100 µM,> 100 µM,> 100 µM,> 100 µM,> 100 µM,> 100 µM,> 100 µM,> 100 µM,> 100 µM,,,,,,,,,,
O=C(NC(Cc1ccc(I)cc1)C(=O)O)c1ccc(I)cc1 (stereo not given),> 77.3 µM,> 100 µM,> 100 µM,> 100 µM,> 100 µM,> 100 µM,> 100 µM,> 100 µM,,> 82.1 µM,,,,,,,,,,
O=c1oc(-c2ccc(O)c(O)c2)cc2cccc(O)c12,37 µM,50.2 µM,> 100 µM,49.2 µM,51.3 µM,29.5 µM,> 85.6 µM,> 100 µM,> 49.1 µM,37.3 µM,,,28.1 µM,,,,,,,16.6 µM
COc1ccc2nc3cc(Cl)ccc3c(NCCCNCCCNc3c4ccc(Cl)cc4nc4ccc(OC)cc34)c2c1,0.147 µM,23.2 µM,0.231 µM,15.2 µM,> 22.8 µM,27.7 µM,0.192 µM,0.23 µM,0.588 µM,0.189 µM,,,,,,,,,,
O=C(NCCCN(CCCCN(CCCNC(=O)C(F)(F)F)Cc1ccccc1)Cc1ccccc1)C(F)(F)F,14.7 µM,36.3 µM,19.2 µM,30.6 µM,30.1 µM,40.5 µM,26.3 µM,27.9 µM,53.5 µM,30.6 µM,,,,,,,,,,
CC1CC[C@@]2(OC1)OC1C[C@H]3[C@@H]4CC[C@H]5CC(OC6OC(CO)C(OC7OC(CO)C(O)C(O)C7OC7OC(CO)C(O)C(O)C7O)C(O)C6O)CCC5(C)[C@H]4CCC3(C)C1[C@@H]2C (stereo not given in full),2.06 µM,11.6 µM,1.86 µM,9.01 µM,13.8 µM,6.96 µM,2.92 µM,4.81 µM,5.36 µM,16.5 µM,,,,,,,,,,
CN(C)c1ccc(C=C2N=C(c3ccccc3)N(c3cc(C(=O)c4ccccc4)ccc3N3C(=O)/C(=C/c4ccc(N(C)C)cc4)N=C3c3ccccc3)C2=O)cc1,22.7 µM,37.6 µM,24.7 µM,> 100 µM,85.1 µM,8.86 µM,6.05 µM,78.9 µM,> 100 µM,> 100 µM,,,,,,,,,,
CC(C)/C(Cl)=N\OC(=O)Nc1ccc(C#N)cc1,29.9 µM,> 22.7 µM,43 µM,4.82 µM,32.2 µM,6.88 µM,29.4 µM,31.6 µM,12.9 µM,31 µM,,,,,,,,,,

# Reference: PubChem BioAssay (NCI)
